Experimental data reported in patent US6869951B1, “Method of changing conformation of a matrix metalloproteinase” (Pharmacia Corporation, priority 1999, dated 2005).
Counter-ions that a name gives are not always drawn.

Assays:
[1] = biological target: T1, MMP-8 catalytic domain (residues 85-242) (Homo sapiens, UniProt P22894); assay: X-ray crystallography of MMP-8 catalytic domain inhibitor complexes; conditions: X-ray crystal structure of the complex, IX, XI relative to compound XII
T1 construct: The catalytic domain (residues 85-242) of MMP-8, neutrophil collagenase, folds into a compact globular structure; made in house
T1 sequence (P22894 105-262): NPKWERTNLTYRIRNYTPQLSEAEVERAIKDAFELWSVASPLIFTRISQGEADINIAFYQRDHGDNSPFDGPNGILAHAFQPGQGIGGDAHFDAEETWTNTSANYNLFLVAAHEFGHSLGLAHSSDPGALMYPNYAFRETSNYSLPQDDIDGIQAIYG
Description: The MMP-8 catalytic domain was cloned by PCR amplification from a cDNA contruct of full-length MMP-8. The amplified DNA was cloned into NdeI/HindIII restriction sites in an in-house pRec expression vector. Protein was expressed in a bacterial expression system by induction with nalidixic acid. Recombinant protein was expressed primarily as inclusion bodies. Purified protein was recovered in high yield following ion exchange chromatography of denatured protein.
Slow dehydration of the drop leads to formation of single crystals of the inhibitor complex. Details are below.
12 mg/ml MMP-8 in 10 mM MES pH 6.0, 100 mM NaCl, 5 mM CaCl2 pre-incubated with 1 mM inhibitor for 10 minutes at ambient temperature.
4 ul of the protein-inhibitor complex mixed with 6.8 ul 10% PEG6000 and 0.2 M MES pH 6.0
0.8 to 2.5 M sodium/potassium phosphate pH 6.0 (not mixed with protein/inhibitor/PEG drop).
Intensities from crystals of the enzyme inhibitor complexes were measured on a MAR image plate at −140° C. X-rays were generated from a rotating anode generator using a Cu target. The CuKα X-rays were focused onto the samples using long Pt and Ni mirrors.
The data were integrated and scaled using the program DENZO (Otwinowski, Z. and Minor W. in Proceedings of CCP4 Study Weekend: Data Collection and Processing (eds. Sawyer, L., Issacs, N., and Bailey, S.) pp. 56-62 (SERC Daresbury Laboratories, Warrington, UK 1993)).
Standard simulated annealing protocols in the program XPLOR (Brünger, A. T. (1993). XPLOR (Version 3.1): A System for X-ray Crystallography and NMR (Yale University Press, New Haven, Conn.)) were used.
New electron density at the expected active site could in all cases be interpreted with flexible, three-dimensional models of the inhibitors as generated in the program […] (Biosym Technologies (1993). Insight II User Guide, Version 2.2.0. San Diego). Solvent positions were also identified from these electron density maps and side chains of the protein were also sometimes manually adjusted.
Final refinements of the structure were carried out with inclusion of inhibitor and solvent ligands. In the refinements, 10% of the data was set aside for cross validation by evaluation of Rfree (A. T. Brünger, “Free R Value: a novel statistical quantity for accessing the accuracy of crystal structures,” Nature 355, 472-475 (1992)).

cancer-specific antigens = conditions: meta analysis of Phase I/II studies; advanced, treatment-refractory solid tumor cancers (colorectal, pancreatic, ovarian, prostate); cited from earlier work
[2] = clinical trials in cancer patients; cited from earlier work

CCCCCc1ccc(C(=O)Nc2ccc(S(=O)(=O)N(CCN3CCOCC3)[C@@H](C(=O)NO)C(C)C)cc2)cc1 [Compound X, R-N-[4-[[[1-(hydroxyamino)carbonyl]-2-methylpropyl][2-(4-morpholinyl)ethyl]amino]-sulfonyl]phenyl]-4-pentylbenzamide, monohydrochloride]
effect on conformation of the amino acid backbone of the S1' pocket of MMP-8 [1]: causes the backbone to deform significantly

CCCCCCc1ccc(C(=O)Nc2ccc(S(=O)(=O)N(CCN3CCOCC3)[C@@H](C(=O)NO)C(C)C)cc2)cc1 [Compound XI, (R)-4-hexyl-N-[4-[[[1-(hydroxyamino)-carbonyl]-2-methylpropyl][2-(4-morpholinyl)ethyl]amino]sulfonyl]-phenylbenzamide, monohydrochloride]
effect on conformation of the amino acid backbone of the S1' pocket of MMP-8 [1]: causes the backbone to deform significantly

CC(O)(CS(=O)(=O)c1ccc(Oc2ccccc2)cc1)C(=O)NO (stereo not shown) [Compound XIV, reference compound]
effect on conformation of the amino acid backbone of the S1' pocket of MMP-8 [1]: essentially no effect on the conformation of the amino acid backbone

CCCCCc1ccc(C(=O)Nc2ccc(S(=O)(=O)N(CCN3CCOCC3)[C@@H](C(=O)O)C(C)C)cc2)cc1 [IX, N-[2-(4-morpholinyl)ethyl]-N-[[4-[(4-pentylbenzoyl)amino]phenyl]sulfonyl]-D-valine]
effect on conformation of the amino acid backbone of the S1' pocket of MMP-8 [1]: causes the backbone to deform significantly

CCCc1ccc(C(=O)Nc2ccc(S(=O)(=O)N[C@@H](C(=O)O)C(C)C)cc2)cc1 [XII]
effect on conformation of the amino acid backbone of the S1' pocket of MMP-8 [1]: essentially no effect on the conformation of the amino acid backbone

CNC(=O)[C@@H](NC(=O)[C@H](CC(C)C)[C@H](O)C(=O)NO)C(C)(C)C [marimastat]
effect on rise of cancer-specific antigens used as surrogate markers for biological activity (cancer-specific antigens): dose-related reduction in the rise of cancer-specific antigens
most common drug-related toxicity [2]: musculoskeletal pain and stiffness
